Experimental data as given in patent publication US8481524B2, “c-MET protein kinase inhibitors” (Vertex Pharmaceuticals Incorporated, priority 2007, dated 2013).
pIC50: −log10 of the molar value.

Test system: c-Met in Snu5 gastric carcinoma cells
Test: Inhibition of c-Met activity in Snu5 gastric carcinoma cells (Snu5-AP1-Luc-Pest luciferase signal)
Type: cell-based, human
Conditions: for pIC50: Homo sapiens, SNU-5, Snu5-AP1-Luc-Pest cells, 6 hours, Steady Glo luminescence; for activity compared with corresponding analog wherein R5 is hydrogen: Snu5 gastric carcinoma cell assay, comparison of IC50 values
Description: Compounds of the invention were also screened for their ability to inhibit the Luciferase-induced signal in an engineered Snu5 cell line. Snu5 [obtained from American Type Culture Collection (Catalog number CRL-5973)] is a human gastric carcinoma known to overexpress c-Met, which is constitutively active. The cell line was transduced with the retrovirus, pCLPCX, which contains a genetic construct consisting of 6×AP1 promoter response elements and a luciferase gene having a C-terminal PEST sequence (proteolytic signal from mouse ornithine decarboxylase, which reduces the half-life of the luciferase). The constitutively active cMet activates cellular pathways (principally MAP kinase), resulting in AP-1-induced transcription of luciferase-PEST and translation into the final product, the activity of which is quantifiable as a chemiluminescent readout upon the addition of luciferin (Steady-Glo from Promega.). Residual luminescence is strongly correlated to the inhibition of c-Met. A stable cell line was obtained by selecting the new cell line (Snu5-AP1-Luc-Pest) with puromycin. The cells were grown in complete media [Iscove's media (Invitrogen) containing 10% fetal bovine serum (FBS, Hyclone) and penicillin/gentamycin (Invitrogen)]. Compounds of the invention were dissolved in DMSO to make 10 mM initial stock solutions. Serial dilutions in DMSO were then made and transferred to complete medium to make a 10× solution. The Snu5-AP1-Luc-Pest cells were counted and diluted to 200,000-cells/mL solution. The cells (90 μL) were added to each well in a 96-well black with clear bottom plate (Costar). Then 10 μL of the 10× compound solution was added to the cells in triplicate. The plates were incubated in a 37° C./5% CO2 incubator. After 6 hours, 50 μL of the Steady Glo reagent (Promega) was added to each well and placed on a plate shaker for 5 minutes to ensure that the cells were completely lysed. The plate was read on a 1450 Microbeta Liquid Scintillation and Luminescence Counter (Perkin-Elmer). The IC50s were calculated using a 4-parameter fit using the graphing software Prism (GraphPad).

| pIC50 | Compound | activity compared with corresponding analog wherein R5 is hydrogen |
| --- | --- | --- |
| ≥ 7.00 | Cc1ccc(-n2nnnc2-c2cc(-c3cc4c(s3)CCNCC4)cnc2N)c(F)c1F [Compound 13, 3-(1-(2,3-Difluoro-4-methylphenyl)-1H-tetrazol-5-yl)-5-(5,6,7,8-tetrahydro-4H-thieno[2,3-d]azepin-2-yl)pyridin-2-amine] | more active |
| ≥ 7.00 | COc1ccc(-n2nnnc2-c2cc(-c3cnn([C@H]4CCNC4)c3)cnc2N)c(F)c1F [Compound 6] | more active |
| ≥ 7.00 | COc1ccc(-n2nnnc2-c2cc(-c3cc4c(s3)CCNCC4(C)C)cnc2N)c(F)c1F [Compound 29] | more active |
| 6.00 to 7.00 | Cc1ccc(-n2nnnc2-c2cc(-c3cnn(C4C[C@H]5CNC[C@H]5C4)c3)cnc2N)c(F)c1F (stereo partly shown) [Compound 48] |  |
| ≥ 7.00 | COc1ccc(-n2nnnc2-c2cc(-c3cc(C)c(C4CCCNC4)s3)cnc2N)c(F)c1F (stereo not shown) [Compound 66] |  |
| 6.00 to 7.00 | COCCOc1ccc(-n2nnnc2-c2cc(-c3cnn(C4CCNCC4)c3)cnc2N)c(F)c1F [Compound 35] |  |
| ≥ 7.00 | Cc1ccc(-n2nnnc2-c2cc(-c3cnn([C@@H]4CCCNC4)c3)cnc2N)c(F)c1F [Compound 2] | more active |
| 6.00 to 7.00 | COc1ccc(-n2nnnc2-c2cc(-c3cc4c(s3)CNCCC4)cnc2N)c(F)c1F [Compound 20] |  |
| 6.00 to 7.00 | Cc1ccc(-n2nnnc2-c2cc(-c3cnn(C4CCNCC4)c3)cnc2N)c(F)c1 [Compound 41] |  |
| ≥ 7.00 | COc1ccc(-n2nnnc2-c2cc(-c3cc4c(s3)CCNC(C)C4)cnc2N)c(F)c1F (stereo not shown) [Compound 27] | more active |
| 6.00 to 7.00 | Cc1ccc(-n2nnnc2-c2cc(-c3cnn(C4CCNCC4)c3)cnc2N)cc1F [Compound 43] |  |
| 6.00 to 7.00 | Cc1ccc(-n2nnnc2-c2cc(-c3cc4c(s3)CCNCC4)cnc2N)c(F)c1 [Compound 42] |  |
| 6.00 to 7.00 | Cc1ccc(-n2nnnc2-c2cc(-c3cnn(C4CCNCC4)c3)cnc2N)c(Cl)c1 [Compound 38] |  |
| 6.00 to 7.00 | Cc1ccc(-n2nnnc2-c2cc(-c3cc4c(s3)CCNCC4)cnc2N)c(Cl)c1 [Compound 39] |  |
| ≥ 7.00 | Cc1ccc(-n2nnnc2-c2cc(-c3cnn(C4CCCNCC4)c3)cnc2N)c(F)c1F (stereo not shown) [Compound 3] | more active |
| 6.00 to 7.00 | COCc1ccc(-n2nnnc2-c2cc(-c3cnn(C4CCNCC4)c3)cnc2N)c(F)c1F [Compound 65] |  |
| 6.00 to 7.00 | COc1ccc(-n2nnnc2-c2cc(-c3cnn(C4CCNCC4)c3)cnc2N)c(F)c1 [Compound 50] |  |
| ≥ 7.00 | COc1ccc(-n2nnnc2-c2cc(-c3cn(C4CCNCC4)nc3C)cnc2N)c(F)c1F [Compound 18] | more active |
| ≥ 7.00 | CC(C)Oc1ccc(-n2nnnc2-c2cc(-c3cc4c(s3)CCNCC4)cnc2N)c(F)c1F [Compound 33] |  |
| ≥ 7.00 | CCOc1ccc(-n2nnnc2-c2cc(-c3cnn(C4CCNCC4)c3)cnc2N)c(F)c1F [Compound 25] |  |
| ≥ 7.00 | Cc1cc(-c2cnc(N)c(-c3nnnn3-c3ccc(C)c(F)c3F)c2)sc1C1CCNCC1 [Compound 24] | more active |
| ≥ 7.00 | COc1ccc(-n2nnnc2-c2cc(-c3cnn([C@H]4CCCNC4)c3)cnc2N)c(F)c1F [Compound 10] | more active |
| ≥ 7.00 | CCCOc1ccc(-n2nnnc2-c2cc(-c3cc4c(s3)CCNCC4)cnc2N)c(F)c1F [Compound 23] |  |
| 6.00 to 7.00 | COc1ccc(-n2nnnc2-c2cc(-c3cnn(C4CCNCC4)c3)cnc2N)c(F)c1F [Compound 12, 3-(1-(2,3-difluoro-4-methoxyphenyl)-1H-tetrazol-5-yl)-5-(1-(piperidin-4-yl)-1H-pyrazol-4-yl)pyridin-2-amine] | more active |
| 6.00 to 7.00 | COc1cc(F)c(-n2nnnc2-c2cc(-c3cc4c(s3)CCNCC4)cnc2N)c(F)c1 [Compound 54] |  |

| pIC50 | Compound | activity compared with corresponding analog wherein R5 is hydrogen |
| --- | --- | --- |
| ≥ 7.00 | Cc1ccc(-n2nnnc2-c2cc(-c3cn(C4CCCNCC4)nc3C)cnc2N)c(F)c1F (stereo not shown) [Compound 46] |  |
| ≥ 7.00 | COc1ccc(-n2nnnc2-c2cc(-c3cc(C)c(C4CCNCC4)s3)cnc2N)c(F)c1F [Compound 22, 3-(1-(2,3-Difluoro-4-methoxyphenyl)-1H-tetrazol-5-yl)-5-(4-methyl-5-(piperidin-4-yl)thiophen-2-yl)pyridin-2-amine] | more active |
| 6.00 to 7.00 | COc1ccc(-n2nnnc2-c2cc(-c3cc4c(s3)CCNCC4)cnc2N)c(F)c1 [Compound 51] |  |
| ≥ 7.00 | COc1ccc(-n2nnnc2-c2cc(-c3cnn([C@@H]4CCCNC4)c3)cnc2N)c(F)c1F [Compound 8, 3-(1-(2,3-Difluoro-4-methoxyphenyl)-1H-tetrazol-5-yl)-5-(1-((R)-piperidin-3-yl)-1H-pyrazol-4-yl)pyridin-2-amine] | more active |
| ≥ 7.00 | COc1ccc(-n2nnnc2-c2cc(-c3cn(C4CCCNCC4)nc3C)cnc2N)c(F)c1F (stereo not shown) [Compound 44] |  |
| 6.00 to 7.00 | COc1ccc(-n2nnnc2-c2cc(-c3cc4c(s3)CCCNC4)cnc2N)c(F)c1F [Compound 21] | more active |
| ≥ 7.00 | COc1ccc(-n2nnnc2-c2cc(-c3cc4c(s3)CCNCC4C)cnc2N)c(F)c1F (stereo not shown) [Compound 14] | more active |
| 6.00 to 7.00 | Cc1ccc(-n2nnnc2-c2cc(-c3cnn([C@@H]4CCNC4)c3)cnc2N)c(F)c1F [Compound 1] | more active |
| ≥ 7.00 | Cc1ccc(-n2nnnc2-c2cc(-c3cn(C4CCNCC4)nc3C)cnc2N)c(F)c1F [Compound 45] |  |
| 6.00 to 7.00 | COc1ccc(-n2nnnc2-c2cc(-c3cnn(C4CCCNCC4)c3)cnc2N)c(F)c1F (stereo not shown) [Compound 9] |  |
| ≥ 7.00 | CCCOc1ccc(-n2nnnc2-c2cc(-c3cnn(C4CCNCC4)c3)cnc2N)c(F)c1F [Compound 34] |  |
| ≥ 7.00 | Cc1ccc(-n2nnnc2-c2cc(-c3cc4c(s3)CCNCC4(C)C)cnc2N)c(F)c1F [Compound 30] | more active |
| ≥ 7.00 | Cc1ccc(-n2nnnc2-c2cc(-c3cc4c(s3)CCNC(C)C4)cnc2N)c(F)c1F (stereo not shown) [Compound 28] | more active |
| ≥ 7.00 | CCC1Cc2sc(-c3cnc(N)c(-c4nnnn4-c4ccc(OC)c(F)c4F)c3)cc2CCN1 (stereo not shown) [Compound 19] | more active |
| ≥ 7.00 | Cc1cc(-c2cnc(N)c(-c3nnnn3-c3ccc(C)c(F)c3F)c2)sc1C1CCCNC1 (stereo not shown) [Compound 67] |  |
| 6.00 to 7.00 | Cc1ccc(-n2nnnc2-c2cc(-c3cnn(C4CCNCC4)c3)cnc2N)c(F)c1F [Compound 11, 3-(1-(2,3-Difluoro-4-methylphenyl)-1H-tetrazol-5-yl)-5-(1-(piperidin-4-yl)-1H-pyrazol-4-yl)pyridin-2-amine] | more active |
| ≥ 7.00 | COc1ccc(-n2nnnc2-c2cc(-c3sc(C4CCNCC4)cc3C)cnc2N)c(F)c1F [Compound 32] | more active |
| ≥ 7.00 | CC(C)Oc1ccc(-n2nnnc2-c2cc(-c3cnn(C4CCNCC4)c3)cnc2N)c(F)c1F [Compound 26] |  |
| ≥ 7.00 | Cc1ccc(-n2nnnc2-c2cc(-c3cnn([C@H]4CCCNC4)c3)cnc2N)c(F)c1F [Compound 5] | more active |
| ≥ 7.00 | COc1ccc(-n2nnnc2-c2cc(-c3cnn([C@@H]4CCNC4)c3)cnc2N)c(F)c1F [Compound 4] | more active |
|  | COc1ccc(-n2nnnc2-c2cc(-c3cnn(C4CC5CCC(C4)N5)c3)cnc2N)c(F)c1F (stereo not shown) [Compound 17] | more active |
| 6.00 to 7.00 | Cc1ccc(-n2nnnc2-c2cc(-c3cn(C4CCNCC4)nc3C(F)(F)F)cnc2N)c(F)c1F [Compound 47] |  |
| < 6.00 | Cc1ccc(-n2nnnc2-c2cc(-c3cnn(C4CCNCC4)c3)cnc2N)cc1Cl [Compound 40] |  |
| ≥ 7.00 | COc1cc(F)c(-n2nnnc2-c2cc(-c3cnn(C4CCNCC4)c3)cnc2N)c(F)c1 [Compound 37] |  |

| Compound | pIC50 | activity compared with corresponding analog wherein R5 is hydrogen |
| --- | --- | --- |
| COc1ccc(-n2nnnc2-c2cc(-c3cnn(C4CC5CCC(C4)N5)c3)cnc2N)c(F)c1F (stereo not shown) [Compound 16] | ≥ 7.00 | more active |
